Laboratory results: patent publication US10874108B2, “Anti-microbial compositions” (5D HEALTH PROTECTION GROUP LTD, priority 2016, dated 2020)
“And” between values parts separate entries of the source, which are not always exact repeats. Identical values can stand only once.

Columns and labels:
P. aeruginosa biofilms = test: MBEC plate 48-hour biofilm, liquid EDTA-Ag2-Zn compound; format: cell-based
Excerpt: Biofilms were formed using the MBEC plate method. Log reduction (LR) values are expressed with standard error. N.D (not determined) is stated when no colonies were detected upon enumeration.

[1] = Elution from collagen films; format: physicochemical; conditions: for Elution in saline (ppm) EDTA / Elution in saline (ppm) Zinc / Elution in water (ppm) EDTA / Elution in saline (ppm) Silver / Elution in water (ppm) Silver / Elution in water (ppm) Zinc: collagen film; for Overall zinc eluted out from collagen films: 5 days; for In total EDTA eluted out from collagen films: over 5 days; for In total silver eluted out from collagen films: over the 5 days
Description: The EDTA compounds 1-4 were added to collagen films and then investigated for elution of these complexes. The collagen film was prepared from a solution of oxidized bovine atelocollagen type I, glycerol and EDTA compounds 1-4. 1.8 ml 10% glycerol solution was added into 20 ml oxidized bovine atelocollagen type I solution. 5 ml EDTA complex were added into the solution with vigorous stirring, and the mixture was adjusted to pH=7.0 by dropwise addition of 5% NaOH. The final solution was adjusted to 30 ml by ultrapure water and was cast into PVC mould. The solution was dried in a fume hood overnight. All the collagen films, impregnated with the EDTA complexes were immersed in water, saline or simulated wound fluid.

[2] = test system: P. aeruginosa 24-hour CDC biofilms; test: Colonies after exposure of 24-hour CDC biofilms to EDTA compounds; format: cell-based
S. aureus wound biofilm = test: Wound biofilm model (Labskin), histological examination; format: cell-based; conditions: 100 ppm; day 6; vs untreated S. aureus wound biofilm
[3] = test system: S. aureus 24-hour CDC biofilms; test: Colonies after exposure of 24-hour CDC biofilms to EDTA compounds; format: cell-based
interleukin-6 (IL-6) = test: IL-6 ELISA, wounded biofilm-containing Labskin; format: cell-based; conditions: 100 ppm; vs S. aureus wound biofilm control
Excerpt: Enzyme-linked immunosorbent assay (ELISA) was used to assess the secreted levels of the inflammatory cytokine interleukin-6 (IL-6) according to previously published methods (Foster, A. M., Baliwag, J., Chen, C. S., Guzman, A. M., Stoll, S. W., Gudjonsson, J. E., Ward, N. L. & Johnston, A. 2014, IL-36 promotes myeloid cell infiltration, activation, and inflammatory activity in skin, The Journal of Immunology, 192, 6053-6061). […] The IL-6 levels were reduced further when compared to the S. aureus wound biofilm control.
ELISA was used to assess the levels of IL-6 in conditioned cell culture medium. Culture medium was changed at day 4, which accounts for the reduction in IL-6. […] Tests were performed in duplicate. Error bars indicate standard deviation.

[4] = Displacement of metals from EDTA complexes by physiological saline; format: physicochemical
Description: Adding saline to the suspension of Ag4(EDTA), the suspension quickly precipitated a solid (AgCl). The precipitate was filtered off, washed with deionized water 4 times; and then dried in a vacuum oven at 50° C. in a dark flask to avoid exposure to direct light.
The displacement experiment described above was repeated for compounds 1-4 to provide the percent of the displacement of silver, copper, zinc from the EDTA complexes by physiological saline.

cells = test: Direct cytotoxicity, Neutral Red Uptake assay
[5] = day 1, listed as EDTA compound 4

## O=C([O-])CN(CCN(CC(=O)[O-])CC(=O)[O-])CC(=O)[O-].[Ag+].[Ag+].[Zn+2] [Compound 4, Ag2ZnEDTA]
P. aeruginosa biofilms; 500 ppm, treatment 24 hours
  % Kill: 100%
P. aeruginosa biofilms; 1000 ppm, treatment 1 hours
  % Kill: 100%
P. aeruginosa biofilms; 1000 ppm, treatment 24 hours
  % Kill: 100%
[1]; day 1
  Elution in saline (ppm) EDTA: 9.75 ± 1.31 ppm
  Elution in saline (ppm) Zinc: 5.65 ± 0.06 ppm
  Elution in water (ppm) EDTA: 9.25 ± 0.90 ppm
[1]; [5]
  Elution in saline (ppm) Silver: 20.34±1.42 ppm
  Elution in water (ppm) Silver: 19.08±0.92 ppm
  Elution in water (ppm) Zinc: 9.86±0.39 ppm
[1]; day 2
  Elution in saline (ppm) EDTA: 0.47 ± 0.35 ppm
  Elution in saline (ppm) Silver: 14.49 ± 2.63 ppm
  Elution in saline (ppm) Zinc: 6.26 ± 0.67 ppm
  Elution in water (ppm) EDTA: 0.96 ± 0.64 ppm
  Elution in water (ppm) Silver: 12.61 ± 1.04 ppm
  Elution in water (ppm) Zinc: 9.60 ± 0.33 ppm
[1]; day 3
  Elution in saline (ppm) EDTA: 0.40 ± 0.08 ppm
  Elution in saline (ppm) Silver: 15.23 ± 2.41 ppm
  Elution in saline (ppm) Zinc: 6.44 ± 0.60 ppm
  Elution in water (ppm) EDTA: 1.53 ± 1.08 ppm
  Elution in water (ppm) Silver: 10.64 ± 1.19 ppm
  Elution in water (ppm) Zinc: 8.08 ± 0.70 ppm
[1]; day 4
  Elution in saline (ppm) EDTA: −0.13 ± 0.90 ppm
  Elution in saline (ppm) Silver: 12.93 ± 2.10 ppm
  Elution in saline (ppm) Zinc: 5.58 ± 0.33 ppm
  Elution in water (ppm) EDTA: 0.24 ± 0.28 ppm
  Elution in water (ppm) Silver: 9.56 ± 0.79 ppm
  Elution in water (ppm) Zinc: 6.24 ± 0.40 ppm
[1]; day 5
  Elution in saline (ppm) EDTA: −0.07 ± 0.93 ppm
  Elution in saline (ppm) Silver: 13.30 ± 2.14 ppm
  Elution in saline (ppm) Zinc: 5.18 ± 0.15 ppm
  Elution in water (ppm) EDTA: 1.17 ± 1.31 ppm
  Elution in water (ppm) Silver: 10.35 ± 0.73 ppm
  Elution in water (ppm) Zinc: 6.53 ± 0.23 ppm
[1]; in saline
  Overall zinc eluted out from collagen films: 27.36%
  In total EDTA eluted out from collagen films: 13.44%
  In total silver eluted out from collagen films: 66.22%
[1]; in water
  Overall zinc eluted out from collagen films: 37.89%
  In total EDTA eluted out from collagen films: 16.95%
  In total silver eluted out from collagen films: 54.03%
[2]
  Number of colonies detected: 0 Cfu/ml
S. aureus wound biofilm
  amount of microorganisms within the tissues (histology): reduced amount of microorganisms within the tissues
[3]
  Number of colonies detected: 0 Cfu/ml
interleukin-6 (IL-6)
  secreted IL-6 (inflammatory marker): significant reduction
[4]
  Displacement (%) Silver: 80.77 ± 6.45%
  Displacement (%) Zinc: 38.86 ± 9.01 %
cells; 25 ppm
  Interpretation: Cytotoxic (if the percentage viability is less than 70% of the untreated control, then the substance is considered cytotoxic)
  Percentage of Control/Percentage Viability (%): 62.67 ± 20.39%
cells; 50 ppm
  Interpretation: Non cytotoxic (if the percentage viability is less than 70% of the untreated control, then the substance is considered cytotoxic)
  Percentage of Control/Percentage Viability (%): 72.93% and 72.93 ± 12.90%
cells; 100 ppm
  Interpretation: Cytotoxic (if the percentage viability is less than 70% of the untreated control, then the substance is considered cytotoxic)
  Percentage of Control/Percentage Viability (%): 56.41 ± 1.83%
